This is an account of results in patent publication US12018001B2, “Pyrimidine cyclohexenyl glucocorticoid receptor modulators” (priority 2018, dated 2024).

The first series concerns the target T1, GR (Homo sapiens, UniProt P04150).
T1 sequence (P04150 1-777): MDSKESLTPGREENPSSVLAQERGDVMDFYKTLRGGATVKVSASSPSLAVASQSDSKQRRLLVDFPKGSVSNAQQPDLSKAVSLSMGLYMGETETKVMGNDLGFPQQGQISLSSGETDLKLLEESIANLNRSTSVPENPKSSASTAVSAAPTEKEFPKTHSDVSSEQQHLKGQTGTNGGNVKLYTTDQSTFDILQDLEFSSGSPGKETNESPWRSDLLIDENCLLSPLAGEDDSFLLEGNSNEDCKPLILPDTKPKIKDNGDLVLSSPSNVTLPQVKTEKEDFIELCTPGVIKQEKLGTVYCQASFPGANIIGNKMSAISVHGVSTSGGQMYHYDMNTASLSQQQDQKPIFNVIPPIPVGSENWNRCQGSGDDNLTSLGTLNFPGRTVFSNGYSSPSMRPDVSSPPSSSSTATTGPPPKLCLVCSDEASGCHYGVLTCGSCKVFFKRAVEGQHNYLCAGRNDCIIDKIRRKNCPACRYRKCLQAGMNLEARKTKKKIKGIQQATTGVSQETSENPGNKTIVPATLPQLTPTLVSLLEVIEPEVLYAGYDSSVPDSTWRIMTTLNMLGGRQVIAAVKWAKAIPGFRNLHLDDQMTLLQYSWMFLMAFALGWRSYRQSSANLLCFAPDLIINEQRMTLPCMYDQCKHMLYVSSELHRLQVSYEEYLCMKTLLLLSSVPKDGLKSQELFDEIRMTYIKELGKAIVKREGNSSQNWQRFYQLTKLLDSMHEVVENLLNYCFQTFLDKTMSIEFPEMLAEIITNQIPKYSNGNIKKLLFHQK
Put plainly: GR binding.
Settings: not given
Compound `Cn1ncc2ccc(C3=CCC(c4[nH]c(=O)[nH]c(=O)c4Cc4ccccc4)CC3)cc21` (stereo not shown) [Example 57] returned an IC50 of 266 nM.
For the compound `CC(C)Oc1cc(C(F)(F)F)ccc1C1=CCC(c2[nH]c(=O)[nH]c(=O)c2Cc2ccccc2)CC1` (stereo not shown) [Example 59], the IC50 stood at 134 nM. This IC50 is about 2-fold lower than that of the compound before.
For `O=c1[nH]c(C2CC=C(c3ccc4ncsc4c3)CC2)c(Cc2ccccc2)c(=O)[nH]1` (stereo not shown) [Example 64], the IC50 is 142 nM.
Regarding `O=c1[nH]c(C2CC=C(c3ccc4c(c3)OCCO4)CC2)c(Cc2ccccc2)c(=O)[nH]1` (stereo not shown) [Example 65], the half-maximal inhibitory concentration (IC50) was 103 nM.
`Cn1cnc2ccc(C3=CCC(c4[nH]c(=O)[nH]c(=O)c4Cc4ccccc4)CC3)cc21` (stereo not shown) [Example 66] gave an IC50 of 3520 nM.
As for `O=c1[nH]c(C2CC=C(c3ccc(C(F)(F)F)c(Cl)c3)CC2)c(Cc2ccccc2)c(=O)[nH]1` (stereo not shown) [Example 69], the IC50 is 3420 nM.
`CN(C)c1ccc(C2=CCC(c3[nH]c(=O)[nH]c(=O)c3Cc3ccccc3)CC2)cn1` (stereo not shown) [Example 70] displayed an IC50 of 142 nM.
As to `O=c1[nH]c(C2CC=C(c3cnc(C(F)(F)F)nc3)CC2)c(Cc2ccccc2)c(=O)[nH]1` (stereo not shown) [Example 72], the IC50 stood at 1920 nM.
As for `Cc1nn(C)c(C)c1C1=CCC(c2[nH]c(=O)[nH]c(=O)c2Cc2ccccc2)CC1` (stereo not shown) [Example 80], the IC50 was 295 nM.
Regarding `CCOc1ccc(C2=CCC(c3[nH]c(=O)[nH]c(=O)c3Cc3ccccc3)CC2)c(Cl)c1` (stereo not shown) [Example 82], the IC50 came to 4.4 nM.
For the compound `O=c1[nH]c(C2CC=C(c3ccc(Cl)c(F)c3F)CC2)c(Cc2ccccc2)c(=O)[nH]1` (stereo not shown) [Example 83], the IC50 is 38.3 nM.
Consider `O=c1[nH]c(C2CC=C(c3cccc4nncn34)CC2)c(Cc2ccccc2)c(=O)[nH]1` (stereo not shown) [Example 88], for which the IC50 is 483 nM.
`O=c1[nH]c(C2CC=C(c3ccc(OC4CC4)cc3Cl)CC2)c(Cc2ccccc2)c(=O)[nH]1` (stereo not shown) [Example 93] came in with an IC50 of 10 nM. Compared with the last compound, the IC50 is about 48-fold lower.
Still for that read-out and setting: in the case of `O=c1[nH]c(C2CC=C(c3ccc(OCC4CC4)cc3C(F)(F)F)CC2)c(Cc2ccccc2)c(=O)[nH]1` (stereo not shown) [Example 95] it was 23 nM; in that of `CNS(=O)(=O)c1cc(C(F)(F)F)ccc1C1=CCC(c2[nH]c(=O)[nH]c(=O)c2Cc2ccccc2)CC1` (stereo not shown) [Example 96], 5090 nM; in that of `CN(C)S(=O)(=O)c1cc(C(F)(F)F)ccc1C1=CCC(c2[nH]c(=O)[nH]c(=O)c2Cc2ccccc2)CC1` (stereo not shown) [Example 97], 2560 nM.
As to `CN(C)S(=O)(=O)c1cc(F)c(C2=CCC(c3[nH]c(=O)[nH]c(=O)c3Cc3ccccc3)CC2)c(F)c1` (stereo not shown) [Example 104], the IC50 turned out to be 3160 nM.
The same measure, in the same setting: as for `CCS(=O)(=O)c1cc(F)c(C2=CCC(c3[nH]c(=O)[nH]c(=O)c3Cc3ccccc3)CC2)c(F)c1` (stereo not shown) [Example 105], the figure is 71.6 nM; as for `CS(=O)(=O)c1ccc(C2=CCC(c3[nH]c(=O)[nH]c(=O)c3Cc3ccccc3)CC2)c(Cl)c1` (stereo not shown) [Example 106], 2.1 nM; as for `CCS(=O)(=O)c1ccc(C2=CCC(c3[nH]c(=O)[nH]c(=O)c3Cc3ccccc3)CC2)c(Cl)c1` (stereo not shown) [Example 107], 2.8 nM.
Same read-out and setting: in the case of `O=c1[nH]c(C2CC=C(c3ccc(OC(F)F)cc3Cl)CC2)c(Cc2ccccc2)c(=O)[nH]1` (stereo not shown) [Example 108] it was 5.4 nM; in that of `CN(C)c1ncccc1C1=CCC(c2[nH]c(=O)[nH]c(=O)c2Cc2ccccc2)CC1` (stereo not shown) [Example 118], 0.76 nM.

For another series, the target named is T2, glucocorticoid receptor (Homo sapiens, UniProt P04150).
T2 construct: host or cells: HepG2
T2 sequence (P04150 1-777): T1 sequence (P04150 1-777)
Put plainly: Hep G2 TAT assay: induction of TAT by dexamethasone in HepG2 cells. The class given is cell-based.
Settings: not given
On the procedure: Glucocorticoid mediated activation of TAT occurs by transactivation of glucocorticoid response elements in the TAT promoter by glucocorticoid receptor-agonist complex.
TAT activity was measured as outlined in the literature by A. Ali et al., J. Med. Chem., 2004, 47, 2441-2452.
HepG2 cells were cultured using MEME media supplemented with 10% (v/v) foetal bovine serum; 2 mM L-glutamine and 1% (v/v) NEAA at 37° C., 5%/95% (v/v) CO2/air. The HepG2 cells were counted and adjusted to yield a density of 0.125×10^6 cells/ml in RPMI 1640 without phenol red, 10% (v/v) charcoal stripped FBS, 2 mM L-glutamine and seeded at 25,000 cells/well in 200 μl into 96 well, sterile, tissue culture micro titre plates, and incubated at 37° C., 5% CO2 for 24 hours
Growth media was removed and replaced with assay media {RPMI 1640 without phenol red, 2 mM L-glutamine+10 μM forskolin}. […] Compounds were serially half log diluted in 100% (v/v) dimethylsulphoxide from a 10 mM stock.
HepG2 cells were then lysed with 30 μl of cell lysis buffer containing a protease inhibitor cocktail for 15 minutes at 4° C. 155 μl of substrate mixture was then added containing 5.4 mM Tyrosine sodium salt, 10.8 mM alpha ketoglutarate and 0.06 mM pyridoxal 5′ phosphate in 0.1 M potassium phosphate buffer (pH 7.4). After 2 hours incubation at 37° C. the reaction was terminated by the addition of 15 μl of 10 M aqueous potassium hydroxide solution, and the plates incubated for a further 30 minutes at 37° C. The TAT activity product was measured by absorbance at λ 340 nm.
[compound] and fitting the data to a 4 parameter logistic equation.
Turning to `N#Cc1ccc(C2=CCC(c3[nH]c(=O)[nH]c(=O)c3Cc3ccccc3)CC2)c(Cl)c1` (stereo not shown) [Example 1, 4′-(5-benzyl-2,6-dioxo-1,2,3,6-tetrahydropyrimidin-4-yl)-2-chloro-2′,3′,4′,5′-tetrahydro-[1,1′-biphenyl]-4-carbonitrile], the affinity corresponds to a Ki of 28 nM.
Regarding `O=c1[nH]c(C2CC=C(c3ccc(Cl)cc3C(F)(F)F)CC2)c(Cc2ccccc2)c(=O)[nH]1` (stereo not shown) [Example 10], the inhibition constant Ki stood at 38 nM.
Take `O=c1[nH]c(C2CC=C(c3ccc(OC(F)(F)F)c(F)c3F)CC2)c(Cc2ccccc2)c(=O)[nH]1` (stereo not shown) [Example 92]: the Ki came out at 803 nM.
`O=c1[nH]c(C2CC=C(c3ccc(OC4CC4)cc3F)CC2)c(Cc2ccccc2)c(=O)[nH]1` (stereo not shown) [Example 94] gave a Ki of 200 nM.
Still for that read-out and setting: in the case of `CNS(=O)(=O)c1ccc(C2=CCC(c3[nH]c(=O)[nH]c(=O)c3Cc3ccccc3)CC2)c(F)c1` (stereo not shown) [Example 98] it was 110 nM; in that of `CN(C)S(=O)(=O)c1ccc(C2=CCC(c3[nH]c(=O)[nH]c(=O)c3Cc3ccccc3)CC2)c(F)c1` (stereo not shown) [Example 99], 730 nM; in that of `O=c1[nH]c(C2CC=C(c3ccc(S(=O)(=O)N4CCCC4)cc3F)CC2)c(Cc2ccccc2)c(=O)[nH]1` (stereo not shown) [Example 100], 1600 nM.
Take `CCS(=O)(=O)c1ccc(C2=CCC(c3[nH]c(=O)[nH]c(=O)c3Cc3ccccc3)CC2)c(F)c1` (stereo not shown) [Example 101]: the affinity, expressed as Ki, was 65 nM.
The same measure, in the same setting: as for `CC(C)S(=O)(=O)c1ccc(C2=CCC(c3[nH]c(=O)[nH]c(=O)c3Cc3ccccc3)CC2)c(F)c1` (stereo not shown) [Example 102], the figure is 270 nM; as for `CN(C)S(=O)(=O)c1ccc(C2=CCC(c3[nH]c(=O)[nH]c(=O)c3Cc3ccccc3)CC2)c(Cl)c1` (stereo not shown) [Example 103], 258 nM; as for `O=c1[nH]c(C2CC=C(c3ccc(C4CC4)cc3F)CC2)c(Cc2ccccc2)c(=O)[nH]1` (stereo not shown) [Example 111, 5-benzyl-6-(4′-cyclopropyl-2′-fluoro-2,3,4,5-tetrahydro-[1,1′-biphenyl]-4-yl)pyrimidine-2,4(1H,3H)-dione], 113 nM.
On to `O=c1[nH]c(C2CC=C(c3ccc(C4CC4)cc3C(F)(F)F)CC2)c(Cc2ccccc2)c(=O)[nH]1` (stereo not shown) [Example 112, 5-benzyl-6-(4′-cyclopropyl-2′-(trifluoromethyl)-2,3,4,5-tetrahydro-[1,1′-biphenyl]-4-yl)pyrimidine-2,4(1H,3H)-dione], for which the Ki is 333 nM.
In the case of `O=c1[nH]c(C2CC=C(c3ccc(C(F)(F)F)nc3N3CCCC3)CC2)c(Cc2ccccc2)c(=O)[nH]1` (stereo not shown) [Example 113], the Ki was 75 nM.
Compound `O=c1[nH]c(C2CC=C(c3ccc(Cl)cc3C(F)(F)F)CC2)c(Cc2cccc(C(F)(F)F)c2)c(=O)[nH]1` (stereo not shown) [Example 114, 6-(4′-chloro-2′-(trifluoromethyl)-2,3,4,5-tetrahydro-[1,1′-biphenyl]-4-yl)-5-(3-(trifluoromethyl)benzyl)pyrimidine-2,4(1H,3H)-dione] returned a Ki of 121 nM.
With `CS(=O)(=O)c1ccc(C2=CCC(c3[nH]c(=O)[nH]c(=O)c3Cc3cccc(F)c3F)CC2)c(F)c1` (stereo not shown) [Example 115, 5-(2,3-difluorobenzyl)-6-(2′-fluoro-4′-(methylsulfonyl)-2,3,4,5-tetrahydro-[1,1′-biphenyl]-4-yl)pyrimidine-2,4(1H,3H)-dione], the Ki is 85 nM.
In turn, `CS(=O)(=O)c1ccc(C2=CCC(c3[nH]c(=O)[nH]c(=O)c3Cc3cccc(C(F)(F)F)c3)CC2)c(F)c1` (stereo not shown) [Example 116] showed a Ki of 170 nM.
Compound `CS(=O)(=O)c1ccc(C2=CCC(c3[nH]c(=O)[nH]c(=O)c3Cc3cccc(N4CCCC4)n3)CC2)c(F)c1` (stereo not shown) [Example 117] showed a Ki of 559 nM.

Tested on in a further series: not listed separately
The series can be described thus: Rat pharmacokinetics (PK) studies, oral gavage cassette. The class given is in vivo, male Sprague Dawley rats. The conditions noted are these: male, Sprague Dawley (or equivalent), rat plasma, nominal dose 1.25 mg/kg. On the procedure: Rat PK studies were conducted in male Sprague Dawley rats (or equivalent) with 3 rats per group. Compounds were evaluated in cassettes of 4 compounds per cassette, with each cassette containing 3 test compounds and one comparator compound with known PK parameters. Rats were cannulated in the jugular vein. The compounds were administered by oral gavage using a suitable vehicle, such as 10% DMSO and 90% methyl cellulose. Compounds of Example 1, Example 10, Example 14, and Example 20 were evaluated with a nominal dose of 1.25 mg/kg and the compound of Example 32 was evaluated with a nominal dose of 3 mg/kg. Blood samples were collected at various timepoints out to 24 hours post-dose and processed to provide plasma. Compound concentrations in the plasma samples were determined by LC/MS analysis. Cmax and AUC were calculated using WinNonlin.
With `N#Cc1ccc(C2=CCC(c3[nH]c(=O)[nH]c(=O)c3Cc3ccccc3)CC2)c(Cl)c1` (stereo not shown) [Example 1, 4′-(5-benzyl-2,6-dioxo-1,2,3,6-tetrahydropyrimidin-4-yl)-2-chloro-2′,3′,4′,5′-tetrahydro-[1,1′-biphenyl]-4-carbonitrile], the Cmax came to 114 ng/mL.
In the case of `O=c1[nH]c(C2CC=C(c3ccc(Cl)cc3C(F)(F)F)CC2)c(Cc2ccccc2)c(=O)[nH]1` (stereo not shown) [Example 10], the Cmax worked out at 196 ng/mL.

Staying with this series, now noted: male, Sprague Dawley (or equivalent), rat plasma, nominal dose 1.25 mg/kg, read-out: AUC0-24.
Turning to `N#Cc1ccc(C2=CCC(c3[nH]c(=O)[nH]c(=O)c3Cc3ccccc3)CC2)c(Cl)c1` (stereo not shown) [Example 1, 4′-(5-benzyl-2,6-dioxo-1,2,3,6-tetrahydropyrimidin-4-yl)-2-chloro-2′,3′,4′,5′-tetrahydro-[1,1′-biphenyl]-4-carbonitrile], the AUC(0-t) was 991 ng·h/mL.
On to `O=c1[nH]c(C2CC=C(c3ccc(Cl)cc3C(F)(F)F)CC2)c(Cc2ccccc2)c(=O)[nH]1` (stereo not shown) [Example 10], for which the AUC(0-t) came to 3040 ng·h/mL.

A word on the IC50: it is the concentration at which inhibition is half-maximal. The low end stands for higher potency, the high end for lower potency. One may read the Ki as a dissociation constant, usually derived from enzyme kinetics or from competition with a known ligand. A high value points to weaker binding. By Cmax is commonly meant the highest concentration seen after dosing.
